Target: T1, GST-HS90A (Mus musculus, UniProt P07901)
T1 construct: gene Hsp90aa1; mouse Hsp90aa1 coding region in pGEX-4T-1, N-terminal GST fusion (tag kept), expressed in E. coli, purified, RED-NHS labelled
Experiment: microscale thermophoresis, RED-NHS labelled protein
Type: binding

## [NH2][Pt]([NH2])([Cl])[Cl] [cisplatin]
  Kd: 5.47 ± 0.2 µM

— paper PMC8632880, “Mitochondrial proteome of mouse oocytes and cisplatin-induced shifts in protein profile” (Acta Pharmacologica Sinica, 2021)
